Converted amounts (≈) assume the structure as drawn. Like-named read-outs stand apart in the source and are kept apart here.
Legend:
in vivo = settings: for AUC(0-t): AUCt; for concentration at 0.5 h: read-out: Blood voriconazole concentration, Time 0.5 hr; for concentration at 1 h: read-out: Blood voriconazole concentration, Time 1 hr; for concentration at 2 h: read-out: Blood voriconazole concentration, Time 2 hr; for concentration at 4 h: read-out: Blood voriconazole concentration, Time 4 hr; for concentration at 6 h: read-out: Blood voriconazole concentration, Time 6 hr; for concentration at 8 h: read-out: Blood voriconazole concentration, Time 8 hr; for concentration at 10 h: read-out: Blood voriconazole concentration, Time 10 hr
Procedure: 24 male beagle dogs were divided into 4 groups, 6 animals per group. Voriconazole as a control drug was once administered to the animals via an oral route under fasting conditions. Efinaconazole as a test drug was once administered to the animals via intravenous and oral routes under fasting conditions. Thereafter, the pharmacokinetic (PK) profiles of the drugs were determined to calculate PK parameters of the drugs and evaluate the pharmacokinetics of the drugs. Specific test conditions and methods are as follows.
The test substances were weighed with an electronic balance. Each of the weighed test substances was placed in a glass container and 0.5% methylcellulose in a 1% Tween 80 solution (distilled water) as an excipient was added thereto. The mixture was vortexed and sonicated to prepare a homogeneous test material.
For intravenous administration, the doses of efinaconazole (intravenous administration group G1) were calculated based on the body weights of the animals. To the test substance was added PEG400 as an excipient whose volume corresponded to 30% of the total volume of a final test material. The mixture was vortexed and sonicated for complete dissolution. To the solution was added ethanol in an amount corresponding to 20% of the total volume of the test material, followed by homogenization by sonication. Then, 0.9% saline was added in an amount corresponding to 50% of the total volume of the test material, followed by vortexing and sonication to in situ prepare the test material in a homogeneous state.
• Routes of administration: Intravenous (IV) and oral (PO) • Doses: G1 (Voriconazole)—6 mg/5 ml/kg (PO); G2 (Efinaconazole)—6 mg/5 ml/kg (PO); G3 (Efinaconazole-Polymer)—6 mg/5 ml/kg (PO); G1 (Efinaconazole)—0.5 mg/I ml/kg (IV) • Frequency of administration: Single dose (once daily)—(QD)
4 ml of blood was collected from each point and centrifuged. 500 μl of the plasma supernatant was dispensed in a 1.5 ml EP tube and the remaining plasma was dispensed into a set of 1.5 ml EP tubes. The samples were stored in a deep freezer at −80° C. After completion of the testing, the blood collection records, sample information certificates, dispensing records, clinical symptom observation records, medication/blood collection results, and test samples (plasma samples) were sent to a specialized analysis agency.
After storage in a freezer, the samples were analyzed by LC/MS/MS and their pharmacokinetic parameters were calculated in a noncompartmental manner using “Phoenix WinNonlin (Version 8.2 or higher, Certara L. P)” software.
AUCt, a bioavailability parameter, is the area under the plasma concentration-time curve from the time of administration medication to the last time point of blood collection with a measurable concentration and was calculated by the trapezoidal formula. Cmax is the highest plasma drug concentration read from the plasma drug concentration-time curve of each sample and Tmax is the time taken to reach the highest plasma drug concentration read from the plasma drug concentration-time curve of each sample. AUC∞ is the area under the plasma concentration-time curve from the time of administration to time infinity.

[1] = cited from earlier work
[2] = Stability test of 10% solutions at room temperature and 65° C., purity by HPLC; assay type: physicochemical; settings: solution (10%)
Procedure: The stability of the co-crystal of efinaconazole to temperature and a solution was evaluated and compared with that of efinaconazole by the following experimental method.
A co-crystalline form of efinaconazole was prepared.

[3] = male, beagle, dog, in vivo, 6 mg/kg, Geometric Means
[4] = male, beagle, dog, in vivo, po, 6 mg/kg, Cmax
[5] = male, beagle, dog, in vivo, po, 6 mg/kg, Geometric Means
[6] = male, beagle, dog, in vivo, po, 6 mg/kg, Geometric Means, Cmax
[7] = male, dog, in vivo, 6 mg/kg, beagle dog, fasting, single 6 mg/kg P.O, group Mean (6 animals)
[8] = male, dog, in vivo, 6 mg/kg, beagle dog, fasting, single 6 mg/kg P.O, individual animals
[9] = male, beagle, dog, in vivo, 0.5 mg/kg, Blood efinaconazole concentration, Time 12 hr

With `C[C@@H](c1ncncc1F)[C@](O)(Cn1cncn1)c1ccc(F)cc1F` [Voriconazole] the “AUCt/AUC∞” value (in vivo; beagle dog, fasting, single 6 mg/kg P.O, group Mean (6 animals)) was 51.125, the AUC(0-t) (in vivo; [3]) was 53500 ng·h/mL and the AUC(0-t) (in vivo; male, beagle, dog, in vivo, po, 6 mg/kg) was 53900 ng·h/mL. It also gave an AUC(0-inf) (in vivo; male, beagle, dog, in vivo, po, 6 mg/kg, AUC∞) of 109000 ng·h/mL, a Cmax (in vivo; [4]) of 3670 ng/mL and an AUC(0-t) (in vivo; [5]) of 53500 ng·h/mL. The Cmax (in vivo; [6]) was 3670 ng/mL, the concentration at 0.053 h (in vivo; male, dog, in vivo, 6 mg/kg, beagle dog, fasting, single 6 mg/kg P.O, group Mean (6 animals), read-out: Blood voriconazole concentration, Time 0.053 hr) was 443 ng/mL and the concentration at 0.25 h (in vivo; male, dog, in vivo, 6 mg/kg, beagle dog, fasting, single 6 mg/kg P.O, group Mean (6 animals), read-out: Blood voriconazole concentration, Time 0.25 hr) was 2720 ng/mL. The concentration at 0.5 h (in vivo; [7]) was 3410 ng/mL, the concentration at 1 h (in vivo; [7]) was 3440 ng/mL and the concentration at 2 h (in vivo; [7]) was 3090 ng/mL. It also gave a concentration at 4 h (in vivo; [7]) of 2950 ng/mL, a concentration at 6 h (in vivo; [7]) of 2610 ng/mL and a concentration at 8 h (in vivo; [7]) of 2460 ng/mL. The concentration at 10 h (in vivo; [7]) was 2270 ng/mL, the concentration at 12 h (in vivo; male, dog, in vivo, 6 mg/kg, beagle dog, fasting, single 6 mg/kg P.O, group Mean (6 animals), read-out: Blood voriconazole concentration, Time 12 hr) was 2180 ng/mL and the concentration at 24 h (in vivo; male, dog, in vivo, 6 mg/kg, beagle dog, fasting, single 6 mg/kg P.O, group Mean (6 animals), read-out: Blood voriconazole concentration, Time 24 hr) was 1500 ng/mL. For the same compound, the concentration at 0.5 h (in vivo; [8]) was 3280 ng/mL, the concentration at 1 h (in vivo; [8]) was 3280 ng/mL and the concentration at 2 h (in vivo; [8]) was 3000 ng/mL. For the same compound, the concentration at 4 h (in vivo; [8]) was 2940 ng/mL, the concentration at 6 h (in vivo; [8]) was 2660 ng/mL and the concentration at 8 h (in vivo; [8]) was 2430 ng/mL. It also gave a concentration at 10 h (in vivo; [8]) of 2250 ng/mL, a concentration at 12 h (in vivo; male, dog, in vivo, 6 mg/kg, beagle dog, fasting, single 6 mg/kg P.O, individual animals, read-out: Blood voriconazole concentration, Time 12 hr) of 2160 ng/mL and a concentration at 24 h (in vivo; male, dog, in vivo, 6 mg/kg, beagle dog, fasting, single 6 mg/kg P.O, individual animals, read-out: Blood voriconazole concentration, Time 24 hr) of 1470 ng/mL. It also gave a Cmax (in vivo; male, dog, in vivo, po, 6 mg/kg, beagle dog, fasting, single 6 mg/kg P.O, individual animals, read-out: Cmax) of 3520 ng/mL.
For `C=C1CCN([C@H](C)[C@](O)(Cn2cncn2)c2ccc(F)cc2F)CC1` [Efinaconazole], the water solubility [1] is given as roughly 610 µg/mL (≈ 1750 µM), the “HPLC (%) After 1 week” value ([2]; 65° C.) is given as 99.55% and the “Related substances (%) After 1 week” value ([2]; 65° C.) is given as 0.45%. For the same compound, the “HPLC (%) After 2 weeks” value ([2]; 65° C.) was 99.46%, the “Related substances (%) After 2 weeks” value ([2]; 65° C.) was 0.54% and the “HPLC (%) After 4 weeks” value ([2]; 65° C.) was 98.47%. For the same compound, the “Related substances (%) After 4 weeks” value ([2]; 65° C.) was 1.53%, the “HPLC (%) After 1 week” value ([2]; room temp.) was 99.73% and the “Related substances (%) After 1 week” value ([2]; room temp.) was 0.27%. For the same compound, the “HPLC (%) After 2 weeks” value ([2]; room temp.) was 99.61%, the “Related substances (%) After 2 weeks” value ([2]; room temp.) was 0.39% and the “HPLC (%) After 4 weeks” value ([2]; room temp.) was 99.60%. The “Related substances (%) After 4 weeks” value ([2]; room temp.) was 0.40%, the “Blood efinaconazole concentration, Time 8 hr” value (in vivo; dog, in vivo, 0.5 mg/kg) was “BLQ” and the “Blood efinaconazole concentration, Time 10 hr” value (in vivo; dog, in vivo, 0.5 mg/kg) was “BLQ”. The “Blood efinaconazole concentration, Time 12 hr” value (in vivo; dog, in vivo, 0.5 mg/kg) was “BLQ”, the “Blood efinaconazole concentration, Time 24 hr” value (in vivo; dog, in vivo, 0.5 mg/kg) was “BLQ” and the “bioavailability compared with other antifungals when administered orally” value (in vivo; dog, in vivo, po) was “higher than those of other antifungals, including voriconazole and itraconazole”. It also gave a concentration at 0.053 h (in vivo; male, beagle, dog, in vivo, 0.5 mg/kg, Blood efinaconazole concentration, Time 0.053 hr) of 262 ng/mL, a concentration at 0.25 h (in vivo; male, beagle, dog, in vivo, 0.5 mg/kg, Blood efinaconazole concentration, Time 0.25 hr) of 168 ng/mL and a concentration at 12 h (in vivo; [9]) of 1.36 ng/mL. It also gave a concentration at 12 hr (in vivo; [9]) of 3.52 ng/mL, a concentration at 24 h (in vivo; male, beagle, dog, in vivo, 0.5 mg/kg, Blood efinaconazole concentration, Time 24 hr) of 0 ng/mL and an AUC(0-t) (in vivo; male, beagle, dog, in vivo, 0.5 mg/kg, Geometric Means) of 245 ng·h/mL. The Cmax (in vivo; male, beagle, dog, in vivo, 0.5 mg/kg, Geometric Means, Cmax) was 318 ng/mL, the bioavailability (in vivo; male, beagle, dog, in vivo, 6 mg/kg) was 51.4 ± 24.6% and the concentration at 2 hr (in vivo; male, beagle, dog, in vivo, 6 mg/kg, Blood efinaconazole concentration, Time 2 hr) was 177 ng/mL. For the same compound, the concentration at 4 hr (in vivo; male, beagle, dog, in vivo, 6 mg/kg, Blood efinaconazole concentration, Time 4 hr) was 64.9 ng/mL, the concentration at 6 hr (in vivo; male, beagle, dog, in vivo, 6 mg/kg, Blood efinaconazole concentration, Time 6 hr) was 27.5 ng/mL and the AUC(0-t) (in vivo; [3]) was 1440 ng·h/mL. The Cmax (in vivo; male, beagle, dog, in vivo, iv, 0.5 mg/kg, Cmax) was 322 ± 58.6 ng/mL, the Tmax (in vivo; male, beagle, dog, in vivo, iv, 0.5 mg/kg, Tmax) was 4.98 min and the Cmax (in vivo; [4]) was 925 ± 236 ng/mL. The AUC(0-t) (in vivo; [5]) was 1440 ng·h/mL and the Cmax (in vivo; [6]) was 904 ng/mL.

— patent publication US20250281476A1, “EFINACONAZOLE ORAL COMPOSITION” (priority 2020, published 2025)
